The values that follow come from paper PMC6543810, “Computational Identification of Novel Kir6 Channel Inhibitors” (Frontiers in Pharmacology, 2019).

Data set [1] concerns Kir6.2/SURx (pancreatic and heart) channels. Details: method as in Yu et al., 2012. The following applies: ref Yu et al., 2012; cited from earlier work.
The next data set deals with Kir2.1. Details: method as in Yu et al. (2012). The following applies: ref Yu et al. (2012); cited from earlier work.
In a further data set the test system is vascular Kir6.1/SUR2B. The arrangement: method as in Yu et al., 2011. The following applies: ref Yu et al., 2011; cited from earlier work.
On the set-up of data set [2]: method as in Cox et al., 2000. The following applies: used to treat type II diabetes mellitus; ref Cox et al., 2000; cited from earlier work.
The next data set concerns the target T1, Kir6.2/SUR2A (Rattus norvegicus, UniProt P70673).
T1 construct: expressed in transfected cells; host or cells: HEK293T
The experiment in a line: Inside-out patch clamp on HEK293T excised membrane patches, WT Kir6.2/SUR2A. The following applies: for IC50: inside-out patch, HEK293T; for Hill coefficient (outward): outward current. It is filed as cell-based. As to the method:
(§1) Inside-out patch clamp electrophysiology was performed as described previously ([Harakalova et al., 2012]). In short, HEK293T cells were cultured on 10 mm glass coverslips and transfected with 0.16 μg of rat pCMV6-Kir6.2, 0.16 μg of rat pCMV6-SUR2A and 0.08 μg of pEGFP1 expression constructs. Measurements were performed using an AxoPatch 200B amplifier controlled by pClamp 9 software (Molecular Devices) at 22°C using a ramp protocol ranging from −100 to +100 mV in 5 s from a holding potential of −40 mV. The sampling rate was 50 kHz, filter frequency was 2 kHz. Bath solution contained 131 mM KCl, 1 mM EGTA, 7.2 mM K2HPO4, 2.8 mM KH2PO4, 1 mM MgCl2, and pH 7.20/KOH. The pipette solution contained 145 mM KCl, 1 mM CaCl2, 1 mM MgCl2, 5 mM HEPES, and pH 7.40/KOH. Pipette resistance was 1.5–3 MΩ. […] All measurements were performed within a timeframe of 8–10 min. Fractional block at −80 and +50 mV was determined by dividing current levels obtained with test compound containing solutions by current levels of control traces recorded in the absence of test compound. Statistics (unpaired Students t-tests (two tailed)) were performed using Kaleidagraph 4.0 software (Synergy Software, Reading, PA, United States).
(§2) Travoprost (MedChemExpress, Monmouth Junction, NJ, United States) was dissolved in DMSO at 10 mM. Test compounds were diluted in bath solution at the indicated concentrations before the start of measurements.

For the next data set, the target named is T2, Kir6.2/SUR2A S1020P (Rattus norvegicus, UniProt P70673).
T2 construct: expressed in transfected cells; host or cells: HEK293T
T2 sequence (P70673 whole entry, stated change not applied): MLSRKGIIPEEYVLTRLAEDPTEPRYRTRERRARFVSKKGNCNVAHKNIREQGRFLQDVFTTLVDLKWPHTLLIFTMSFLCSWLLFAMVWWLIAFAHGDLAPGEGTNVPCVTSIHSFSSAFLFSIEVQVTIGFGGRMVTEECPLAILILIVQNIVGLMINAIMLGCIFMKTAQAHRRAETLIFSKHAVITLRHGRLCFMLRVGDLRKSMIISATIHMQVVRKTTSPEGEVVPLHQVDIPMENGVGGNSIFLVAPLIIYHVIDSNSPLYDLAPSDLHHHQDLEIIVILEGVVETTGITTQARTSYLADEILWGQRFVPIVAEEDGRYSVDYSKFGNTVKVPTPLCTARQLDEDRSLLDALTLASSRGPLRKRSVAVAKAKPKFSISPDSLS
T2 sequence (Q63563 whole entry S1016P partner): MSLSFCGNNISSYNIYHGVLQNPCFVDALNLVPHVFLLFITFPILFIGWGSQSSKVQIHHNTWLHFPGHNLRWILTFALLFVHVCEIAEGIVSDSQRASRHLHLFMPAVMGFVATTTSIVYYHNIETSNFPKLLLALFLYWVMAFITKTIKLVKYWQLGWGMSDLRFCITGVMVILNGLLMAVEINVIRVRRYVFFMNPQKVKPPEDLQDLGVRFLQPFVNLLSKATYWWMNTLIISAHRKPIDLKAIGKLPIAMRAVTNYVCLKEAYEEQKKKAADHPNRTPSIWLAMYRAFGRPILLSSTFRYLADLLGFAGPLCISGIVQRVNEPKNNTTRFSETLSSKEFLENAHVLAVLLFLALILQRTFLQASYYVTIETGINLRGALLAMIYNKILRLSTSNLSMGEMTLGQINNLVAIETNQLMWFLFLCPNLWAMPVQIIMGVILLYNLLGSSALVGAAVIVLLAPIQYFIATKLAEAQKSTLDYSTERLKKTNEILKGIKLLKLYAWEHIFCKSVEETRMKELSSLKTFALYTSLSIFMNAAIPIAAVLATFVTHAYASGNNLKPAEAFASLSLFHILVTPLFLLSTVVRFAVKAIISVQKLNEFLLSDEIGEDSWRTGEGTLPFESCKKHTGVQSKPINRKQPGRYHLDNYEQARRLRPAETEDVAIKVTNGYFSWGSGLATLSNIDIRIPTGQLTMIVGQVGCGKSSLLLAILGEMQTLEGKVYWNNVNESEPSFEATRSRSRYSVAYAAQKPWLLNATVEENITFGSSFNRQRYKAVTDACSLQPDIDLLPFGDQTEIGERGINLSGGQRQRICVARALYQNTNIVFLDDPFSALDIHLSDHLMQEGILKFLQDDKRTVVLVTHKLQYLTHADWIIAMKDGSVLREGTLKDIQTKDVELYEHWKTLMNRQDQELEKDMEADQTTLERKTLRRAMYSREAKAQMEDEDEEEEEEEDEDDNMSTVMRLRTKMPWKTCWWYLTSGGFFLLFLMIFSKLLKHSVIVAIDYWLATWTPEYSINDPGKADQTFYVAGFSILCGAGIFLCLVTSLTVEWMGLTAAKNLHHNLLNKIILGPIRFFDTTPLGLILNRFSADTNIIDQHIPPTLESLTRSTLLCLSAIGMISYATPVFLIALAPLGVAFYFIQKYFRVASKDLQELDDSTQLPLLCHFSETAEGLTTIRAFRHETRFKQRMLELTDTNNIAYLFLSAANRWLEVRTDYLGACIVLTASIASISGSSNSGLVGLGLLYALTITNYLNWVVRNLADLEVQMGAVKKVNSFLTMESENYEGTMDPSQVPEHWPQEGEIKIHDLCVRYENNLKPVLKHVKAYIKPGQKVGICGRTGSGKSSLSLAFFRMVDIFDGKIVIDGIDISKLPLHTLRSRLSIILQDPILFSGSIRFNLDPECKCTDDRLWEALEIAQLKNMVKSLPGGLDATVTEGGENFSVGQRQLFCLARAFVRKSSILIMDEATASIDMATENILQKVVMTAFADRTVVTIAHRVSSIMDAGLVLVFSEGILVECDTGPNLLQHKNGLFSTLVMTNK
The experiment in a line: Inside-out patch clamp, Cantú mutant S1020P SUR2A with Kir6.2. Conditions: S1020P SUR2A/Kir6.2, outward current. The format is cell-based. On the procedure:
as §1, §2

Another data set concerns Kir4.1. Details: method as in Yu et al. (2012). The following applies: ref Yu et al. (2012); cited from earlier work.
The target of the next data set is T3, Kir6.2 C166S/SUR2A (Rattus norvegicus, UniProt P70673, C166S).
T3 construct: expressed in transfected cells; host or cells: HEK293T
T3 sequence (P70673 whole entry C166S): as the sequence (P70673 whole entry, stated change not applied) above, with C166S counted along it
T3 sequence (Q63563 whole entry partner): as the sequence (Q63563 whole entry S1016P partner) above, with P1016S counted along it
The experiment in a line: Inside-out patch clamp, Cantú mutant C166S Kir6.2 with SUR2A. It is filed as cell-based. Conditions: C166S Kir6.2 (homolog of Kir6.1 C176S)/SUR2A, outward current. As to the method: as §1, §2
(In general: In patch-clamp work, channel activity is measured electrically.)

The next data set has as its system Kir1.1. The arrangement: method as in Yu et al. (2012). The following applies: ref Yu et al. (2012); cited from earlier work.
[3] abbreviates: outward current component (+50 mV), mean ± SEM, read-out: IC50 outward.

Read-outs that look alike come from different tables or passages of the source.

T1 sequence (P70673 whole entry): as the sequence (P70673 whole entry, stated change not applied) above
T1 sequence (Q63563 whole entry partner): as the sequence (Q63563 whole entry S1016P partner) above, with P1016S counted along it

Usually IC50 stands for the concentration that inhibits the measured activity by half. Turning to `CN(CCOc1ccc(CC2SC(=O)NC2=O)cc1)c1ccccn1` (centres unmarked) [RSG, 5-[[4-[2-[methyl(pyridin-2-yl)amino]ethoxy]phenyl]methyl]-1,3-thiazolidine-2,4-dione], the IC50 is 45 µM in data set [1]; 10 µM with vascular Kir6.1/SUR2B; 26 ± 1.49 µM at Kir6.2/SUR2A (setting [3]); 25.4 ± 4.24 µM at Kir6.2/SUR2A S1020P; 34.9 ± 2.34 µM at Kir6.2 C166S/SUR2A. The “sensitivity of channel to drug” value in the data set with Kir2.1, with Kir4.1 and in the data set on Kir1.1 was “insensitive” each time. In [2], the plasma concentrations is approximately 3000 nM.
Consider `CC(C)NCC(O)COc1ccc(CCOCC2CC2)cc1` (centres unmarked) [Betaxolol], for which the IC50 at Kir6.2/SUR2A (setting [3]) worked out at 22.1 ± 2.47 µM; at Kir6.2/SUR2A S1020P, 29.5 ± 3.78 µM; on Kir6.2 C166S/SUR2A, 41.2 ± 2.89 µM. For the same compound, the “Hill coefficient (outward)” value at Kir6.2/SUR2A (Hill equation fit) is 0.89.
`CC(C)OC(=O)CCC/C=C\C[C@@H]1[C@@H](/C=C/[C@@H](O)COc2cccc(C(F)(F)F)c2)[C@H](O)C[C@@H]1O` [Travoprost]: the IC50 on Kir6.2/SUR2A (inward current component (-80 mV), read-out: IC50 inward) is 2.3 ± 1.26 µM; on Kir6.2/SUR2A (setting [3]) it was 2.46 ± 0.52 µM; on Kir6.2/SUR2A S1020P it was 11 ± 1.28 µM; on Kir6.2 C166S/SUR2A it was 14.8 ± 2.16 µM. Besides, at Kir6.2/SUR2A (inward current, Hill equation fit), the “Hill coefficient (inward)” value was found to be 0.65. Further, at Kir6.2/SUR2A (Hill equation fit), the “Hill coefficient (outward)” value came out at 0.71.
With `CC(NCCc1ccc(O)cc1)C(O)c1ccc(O)cc1` (centres unmarked) [Ritodrine], the concentration for half-maximal inhibition (IC50) was 7.09 ± 0.45 µM at Kir6.2/SUR2A (setting [3]), 6.77 ± 0.49 µM at Kir6.2/SUR2A S1020P and 10.4 ± 0.87 µM at Kir6.2 C166S/SUR2A. Also, the “Hill coefficient (outward)” value on Kir6.2/SUR2A (Hill equation fit) was 0.86.
